# Test results as given in PMC9144936, “New Cu^+2 Complexes with N-Sulfonamide Ligands: Potential Antitumor, Antibacterial, and Antioxidant Agents” (Molecules, 2022).
# pIC50: −log10 of the molar value.
# Tests used:
# [1] = tested on: Staphylococcus aureus ATCC 6538P; experiment: Disk diffusion method, S. aureus; assay type: cell-based; settings: complexes 5 µL of 1 mg/mL; 25 µg Amoxicillin, 5 µg Norfloxacin; 24 h, 37 °C
# Description: (§1) The disk diffusion method was used to determine the antibacterial activity of the C1 and C2 copper complexes on four reference microbial strains, two Gram-positive (Staphylococcus aureus and Bacillus cerreus) and two Gram-negative (Escherichia coli and Pseudomonas aeruginosa) strains. The disk diffusion method was used to determine the antibacterial activity of the C1 and C2 copper complexes. The method was adapted for the purposes of the current study, according to the standards developed by the Clinical and Laboratory Standards Institute. Four reference microbial strains, two Gram-positive (Staphylococcus aureus ATCC […] and Bacillus cerreus ATCC 14579) and two Gram-negative (Escherichia coli ATCC 10536 and Pseudomonas aeruginosa ATCC 27853) strains, were used for in vitro susceptibility testing. These reference microbial strains were obtained from the American Type Culture Collection (ATCC, Manassas, VA, USA). As positive controls, Amoxicillin (Oxoid Ltd., Basingstoke, UK) and Norfloxacin (Sigma-Aldrich) were used. For each of the four species, an initial suspension of bacterial cultures was inoculated on nutrient agar plates (Merck KGaA, Darmstadt, Germany), incubated for 24 h at 37 ± 2 °C and resuspended in a physiological saline buffer to a […] concentration (on a 0.5 McFarland scale), and further inoculated on Muëller Hinton agar plates (Merck KGaA, Darmstadt, Germany). […] After inoculation, the medium surface was dried and 8 wells were radially drilled 1.5 cm from the outer edge, 3 cm apart. From aliquot samples of 1 mg/mL of each copper complex dissolved in DMSO and incorporated in sterile liquid medium, 5 μL was placed in each of the 8 wells and left for 30 min to diffuse into the agar plates. The plates were then incubated for 24 h at 37 ± 2 °C. Then, 25 μg Amoxicillin and 5 μg Norfloxacin served as a positive controls, while DMSO 0.75% was used as a negative control. Readings were conducted by measuring the diameter of the inhibition zone (Halo Zone Test, in mm). The germ sensitivity of the copper complexes was estimated by comparing the diameter of the inhibition area to that generated by the regular antibiotics with known inhibition values. […] All tests were triplicated, and the measured diameters of the inhibition zone were expressed (in mm) as mean ± standard deviation.
# [2] = tested on: Bacillus cerreus ATCC 14579; experiment: Disk diffusion method, B. cerreus; assay type: cell-based; settings: complexes 5 µL of 1 mg/mL; 25 µg Amoxicillin, 5 µg Norfloxacin; 24 h, 37 °C
# Description: as §1
# [3] = tested on: Pseudomonas aeruginosa ATCC 27853; experiment: MIC, serial broth microdilution, P. aeruginosa; assay type: cell-based; settings: 24 h, 37 °C
# Procedure: The values of MIC, defined as the lowest concentration of antimicrobial complex that prevents visible growth of germs, are presented in Table S4 in the Supplementary Material. To quantify the copper complexes effectiveness as antibacterial agents, their minimum inhibitory concentrations (MICs) were determined using the serial broth microdilution method described by Quinn et al. and Markey et al.. The method was adapted for the purposes of the current study, according to the standards developed by the Clinical and Laboratory Standards Institute. The tests were performed on the same Gram-positive and Gram-negative reference microbial strains. Ten successive dilutions of the copper complexes solutions (1/2 to 1/1024) in nutrient broth (Merck KGaA, Darmstadt, Germany) were performed and then were placed in sterile microplates (one each for every copper complex). The microplates were incubated at 37 ± 2 °C for 24 h. Comparisons of the amount of bacterial growth in each well containing copper complexes solutions with the amount of growth in the growth control wells were performed and the maximal dilution for which the tested copper complexes inhibited bacterial growth was determined.
# [4] = SOD mimetic activity, xanthine/xanthine oxidase system, NBT reduction; assay type: biochemical; settings: pH 7.8, read-out: SOD-like activity IC50 (50% inhibition of NBT reduction)
# Procedure: The SOD-like activities of complexes C1 and C2 were determined by an indirect method using the xanthine/xanthine oxidase system as the source of superoxide radicals. […] The IC50 value for native Cu2Zn2SOD is 0.006 μΜ. Thus, the IC50 values for both complexes are higher than the IC50 value for native Cu2Zn2SOD but are similar to those of complexes with related sulfonamide ligands presented in the literature.
# The in vitro SOD mimetic activities of the complexes were assayed using the Oberley and Spitz method with some minor modifications. To generate a reproductible and constant flux of superoxide anions, xanthine (1.5 × 10^−4 M) and xanthine oxidase in 50 mM potassium phosphate buffer, pH = 7.8, were used. The superoxide anions were detected by the reduction of nitro blue tetrazolium (NBT) (5.6 × 10^−5 M) to blue formazane, which was determined spectrophotometrically at 560 nm. Different concentrations of the complexes (50, 25, 12.5, 2, and 0.2 μM) were prepared in 50 mM Tris-HCl buffer, pH = 7.8. For each determination, 0.1 mL complex solution + 0.1 mL xanthine oxidase were added to 0.8 mL of solution containing 0.69 mL potassium phosphate buffer (pH = 7.8), 0.025 mL NBT, and […]. The inhibition percentage of NBT reduction was used to determine the SOD activities of the complexes. The conversion of xanthine to uric acid was measured at 310 nm. The % inhibition of enzyme activity was subtracted from that of NBT. The IC50 values (the concentration of complex needed to yield 50% inhibition of NBT reduction) were determined from plots of % inhibition versus complex concentration. A Specord 200 Plus Spectrophotometer was used to perform the determinations and all reagents were purchased from Sigma-Aldrich.
substance,measurement,setting,value
"[Cu(N-(5-(4-Methylphenyl)-[1,3,4]-Thiadiazole-2-yl) Naphtalenesulfonamidate)2(H2O)3] [C1]",Halo Zone Test (diameter of the inhibition zone),[1],13 ± 0.17 mm
same,Halo Zone Test (diameter of the inhibition zone),[2],11 ± 0.25 mm
same,MIC,[3],0.196 µg/mL
same,pIC50,[4],6.55
"[Cu(N-(5-Ethyl--[1,3,4]-Thiadiazole-2-yl) Naphtalenesulfonamidate)2(py)2(H2O)] [C2]",Halo Zone Test (diameter of the inhibition zone),[1],15 ± 0.44 mm
same,Halo Zone Test (diameter of the inhibition zone),[2],12 ± 0.34 mm
same,MIC,[3],0.089 µg/mL
same,pIC50,[4],6.76
